The record followed here is US20220233468A1 (priority 2021, published 2022).

Where two headings read alike, the source gives them in different places.

Holding throughout (assay): microbe, parasite or virus in culture
Holding throughout (format): cell-based

Assay [1] deals with pseudovirions harboring S protein from SARS-CoV-2 Beta variant (B.1.351). The settings on record: for EC50: Severe acute respiratory syndrome coronavirus 2.
Assay [2] relates to pseudovirions harboring S protein from SARS-CoV-2 Alpha variant (B.1.1.7). Conditions: for EC50: Severe acute respiratory syndrome coronavirus 2.
Assay [3] deals with pseudovirions harboring S protein from SARS-CoV-2 Gamma variant (P.1). The settings on record: Severe acute respiratory syndrome coronavirus 2.
For assay [4], the system named is pseudovirions harboring S protein from SARS-CoV-2 Delta variant (B.1.617.2). The settings on record: for EC50: Severe acute respiratory syndrome coronavirus 2.
[5] abbreviates: read-out: EC50, inhibition of cellular entry of pseudovirions, Gamma variant.

On to `COc1ccc(/C=C/C(=O)C(F)(CC2CCC2)C(=O)/C=C/c2ccc(OC)c(OC)c2)cc1OC` [Compound A, 4-fluoro-4-cyclobutylmethyl-1,7-bis(3,4-dimethoxyphenyl)hepta-1,6-diene-3,5-dione], for which the “inhibition of cellular entry of pseudovirions with Spike variants (in words), Beta variant” value in assay [1] is given as “showed inhibition of cellular entry”. The “inhibition of cellular entry of pseudovirions with Spike variants (in words), Alpha variant” value in assay [2] was “showed inhibition of cellular entry”. For the same molecule, the EC50 in assay [3] (setting [5]) was about 4 µM. Moreover, the “inhibition of cellular entry of pseudovirions with Spike variants (in words), Delta variant” value in assay [4] is “showed inhibition of cellular entry”.
For the molecule `COc1ccc(/C=C/C(=O)C(CC2CCC2)C(=O)/C=C/c2ccc(OC)c(OC)c2)cc1OC` [Compound B, 4-(cyclobutylmethyl)-1,7-bis(3,4-dimethoxyphenyl)hepta-1,6-diene-3,5-dione], the EC50 in assay [1] (read-out: EC50, inhibition of cellular entry of pseudovirions, Beta variant) was about 4.7 µM; in assay [1] (read-out: EC50, prophylactic inhibition of cellular entry of pseudovirions, Beta variant), about 3.3 µM; in assay [2] (read-out: EC50, inhibition of cellular entry of pseudovirions, Alpha variant), about 4.4 µM; in assay [2] (read-out: EC50, prophylactic inhibition of cellular entry of pseudovirions, Alpha variant), about 3.2 µM; in assay [3] (setting [5]), about 4.7 µM; in assay [3] (read-out: EC50, prophylactic inhibition of cellular entry of pseudovirions, Gamma variant) it was about 3.6 µM. Moreover, the EC50 in assay [4] (read-out: EC50, inhibition of cellular entry of pseudovirions, Delta variant) was about 4.9 µM; in assay [4] (read-out: EC50, prophylactic inhibition of cellular entry of pseudovirions, Delta variant), about 3.8 µM.
